Measured values: PubChem BioAssay AID504629 (National Center for Advancing Translational Sciences (NCATS), 2011)

Tested on: Caco-2 monolayer permeability, A-to-B, LC-MS/MS
Test: Inhibitors of HPGD: Caco-2 Cell Permeability Profiling
Details: stronger effect = higher value
Excerpt: Human 15-Hydroxyprostaglandin dehydrogenase (HPGD) catalyzes the inactivation of prostaglandin E2, and plays a major role in cancer biology by antagonizing the oncogenic potential of cyclooxygenase type 2 (COX2). Assays are available, based on absorbance/fluorescence increase of NADH with the substrate 15-OH prostaglandin E2. This bioassays provides profiling data on Caco-2 cell permeability of leads compounds developed for the HPGD project. This in vitro model is often predictive of in vivo absorption of the compound across the intestinal lining by using a Caco2-cell line and measuring the compound's rate of transport […]. NIH Chemical Genomics Center [NCGC] Structural Genomics Consortium [SGC]
1. Buffer Preparation: Prepare 1M HEPES: add 23.83g HEPES to 100ml of 0.85% NaCl Prepare HBSS+ buffer: add 12.8ml of 1M HEPES in 0.85% NaCl to 500ml HBSS buffer. 2. Take out the compounds from -80 degrees C, ultrasonicate or pre-warm for a few minutes to thaw the compounds. 3. […] The T0, LY and T90, LY plates are read by FlexStation 3 at excitation of 485 nm and emission of 535 nm to determine LY permeability. […]

Row | permeability Papp | SMILES
1 | 21 10^-6 cm/s | Cc1cc(-c2nnc3n2CCCCC3)c(C)n1-c1ccccc1
2 | 15 10^-6 cm/s | Cc1cccc(-n2cnc3cc(C(=O)N4CCCCC4)ccc32)c1
